In patent publication US10519207B2, “Compositions and methods for treating opioid tolerance” (priority 2015, dated 2019):

Key:
EAAC1 mRNA = test: In situ hybridization of neuronal EAAC1 mRNA in caudal vlPAG; assay type: in vivo, rat
TNF mRNA = test: qPCR of TNF mRNA in vlPAG; assay type: in vivo, rat; details: chronic morphine with or without XPro1595
Method: (§1) Gene expression is reported as the ratio of the gene of interest to Gapdh, and are normalized to the Vehicle+Saline condition. Changes in mRNA between groups were assessed using an ANOVA on ranks (Kruskal-Wallis), and Mann Whitney U post-hoc comparisons (SPSS). Data are expressed as median; p<0.05 was considered significant.

IL-6 mRNA = test: qPCR of IL-6 mRNA in vlPAG; assay type: in vivo, rat; details: chronic morphine with or without XPro1595
Method: as §1

IL-10 mRNA = test: qPCR of IL-10 mRNA in vlPAG; assay type: in vivo, rat; details: chronic morphine with or without XPro1595
Method: as §1

solTNF = target: T1, solTNF (Mus musculus, UniProt P06804); details: systemic delivery; cited from earlier work
T1 construct: There are two active forms of TNF, soluble-TNF (solTNF) and transmembrane-TNF (tmTNF); host or cells: endogenous TNF of EAE animals
T1 sequence (P06804 80-235 limits assumed): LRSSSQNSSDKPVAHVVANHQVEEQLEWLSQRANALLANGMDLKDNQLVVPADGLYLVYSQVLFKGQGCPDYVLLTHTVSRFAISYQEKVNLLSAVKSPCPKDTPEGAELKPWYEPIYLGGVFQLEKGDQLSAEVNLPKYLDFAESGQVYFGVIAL

TNF = details: morphine tolerant animals; cited from earlier work
soluble TNF (solTNF) = target: T2, soluble TNF (solTNF) (Rattus norvegicus, UniProt P16599); assay type: in vivo; details: 24 and 72 hours after intra-PAG administration
T2 construct: soluble TNF which is formed after cleavage of tmTNF by ADAM17/TNF-αlpha Converting Enzyme (TACE); from tissue; host or cells: living rat, ventrolateral periaqueductal gray (vlPAG) / CNS
Method: Male Sprague Dawley rats (250-350 g; Charles River; MA) were pair-housed on a 12:12 hour light:dark cycle (lights on at 7:00 am) with ad libitum access to food and water. The Institutional Animal Care and Use Committee at Georgia State University approved all studies.
Rats were implanted with bilateral cannula aimed at the ventrolateral PAG (vlPAG) and received bilateral infusions of lenti-DN-TNF or lenti-GFP while under surgical anesthesia.

T2 sequence (P16599 80-235): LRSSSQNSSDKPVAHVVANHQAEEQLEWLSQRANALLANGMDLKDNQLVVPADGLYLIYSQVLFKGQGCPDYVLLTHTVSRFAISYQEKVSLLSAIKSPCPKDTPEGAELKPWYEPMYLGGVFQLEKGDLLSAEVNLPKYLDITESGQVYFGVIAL
Sequence of TNF (P16599 80-235 limits assumed): as the sequence (P16599 80-235) above

CN1CC[C@]23c4c5ccc(O)c4O[C@H]2[C@@H](O)C=C[C@H]3[C@H]1C5 [morphine]
vlPAG EAAC1 mRNA expression (EAAC1 mRNA; systemic morphine for 3 days): No significant effect
vlPAG TNF gene expression (TNF mRNA): not statistically significant
vlPAG IL-6 mRNA (IL-6 mRNA): No significant change
vlPAG IL-10 mRNA (IL-10 mRNA): No significant change

etanercept
outcome in EAE (solTNF): neither therapeutic nor neuroprotective
effect on acute morphine inhibition of tail flick reflex (TNF): restores the ability of morphine to acutely inhibit tail flick reflex

lipopolysaccharide [LPS]
baseline paw withdrawal latencies (soluble TNF (solTNF)): no effect
vlPAG EAAC1 mRNA (EAAC1 mRNA; chronic vlPAG microinfusions of LPS): did not alter
